Experimental data taken from patent US7951824B2, “4-aryl-pyridine-2-carboxyamide derivatives” (Hoffman-La Roche Inc., priority 2006, dated 2011).
pKi: −log10 of the molar value.

Biological target: T1, human mGlu 5a receptor (Homo sapiens, UniProt P41594)
T1 construct: expressed in transfected cells; host or cells: EBNA cells (transient transfection), membrane homogenates
Assay: [3H]MPEP competition binding on membranes of EBNA cells transfected with human mGlu 5a receptor
Settings: competition with [3H]MPEP (2 nM), 1 h at 4° C., EBNA cell membranes
Protocol: The pharmacological activity of the compounds was tested using the following method: For binding experiments, cDNA encoding human mGlu 5a receptor was transiently transfected into EBNA cells using a procedure described by Schlaeger and Christensen [Cytotechnology 15:1-13 (1998)]. Cell membrane homogenates were stored at −80° C. until the day of assay where upon they were thawed and resuspended and polytronised in 15 mM Tris-HCl, 120 mM NaCl, 100 mM KCl, 25 mM CaCl2, 25 mM MgCl2 binding buffer at pH 7.4 to a final assay concentration of 20 μg protein/well.
Saturation isotherms were determined by addition of twelve [^3H] MPEP concentrations (0.04-100 nM) to these membranes (in a total volume of 200 μd) for 1 h at 4° C. Competition experiments were performed with a fixed concentration of [^3H]MPEP (2 nM) and IC50 values of test compounds evaluated using 11 concentrations (0.3-10,000 nM). Incubations were performed for 1 h at 4° C.
At the end of the incubation, membranes were filtered onto unifilter (96-well white microplate with bonded GF/C filter preincubated 1 h in 0.1% PEI in wash buffer, Packard Bio-Science, Meriden, Conn.) with a Filtermate 96 harvester (Packard BioScience) and washed 3 times with cold 50 mM Tris-HCl, pH 7.4 buffer. Nonspecific binding was measured in the presence of 10 μM MPEP. The radioactivity on the filter was counted (3 min) on a Packard Top-count microplate scintillation counter with quenching correction after addition of 45 μl of microscint 40 (Canberra Packard S. A., Zürich, Switzerland) and shaking for 20 min.
For binding experiments the Ki values of the compounds tested are given. The Ki value is defined by the following formula: KiIC50/[1+L/Kd] in which the IC50 values are those concentrations of the compounds tested which cause 50% inhibition of the competing radioligand ([^3H]MPEP). L is the concentration of radioligand used in the binding experiment and the Kd value of the radioligand is empirically determined for each batch of membranes prepared.

T1 sequence (P41594 21-1180 isoform P41594-2 limits assumed): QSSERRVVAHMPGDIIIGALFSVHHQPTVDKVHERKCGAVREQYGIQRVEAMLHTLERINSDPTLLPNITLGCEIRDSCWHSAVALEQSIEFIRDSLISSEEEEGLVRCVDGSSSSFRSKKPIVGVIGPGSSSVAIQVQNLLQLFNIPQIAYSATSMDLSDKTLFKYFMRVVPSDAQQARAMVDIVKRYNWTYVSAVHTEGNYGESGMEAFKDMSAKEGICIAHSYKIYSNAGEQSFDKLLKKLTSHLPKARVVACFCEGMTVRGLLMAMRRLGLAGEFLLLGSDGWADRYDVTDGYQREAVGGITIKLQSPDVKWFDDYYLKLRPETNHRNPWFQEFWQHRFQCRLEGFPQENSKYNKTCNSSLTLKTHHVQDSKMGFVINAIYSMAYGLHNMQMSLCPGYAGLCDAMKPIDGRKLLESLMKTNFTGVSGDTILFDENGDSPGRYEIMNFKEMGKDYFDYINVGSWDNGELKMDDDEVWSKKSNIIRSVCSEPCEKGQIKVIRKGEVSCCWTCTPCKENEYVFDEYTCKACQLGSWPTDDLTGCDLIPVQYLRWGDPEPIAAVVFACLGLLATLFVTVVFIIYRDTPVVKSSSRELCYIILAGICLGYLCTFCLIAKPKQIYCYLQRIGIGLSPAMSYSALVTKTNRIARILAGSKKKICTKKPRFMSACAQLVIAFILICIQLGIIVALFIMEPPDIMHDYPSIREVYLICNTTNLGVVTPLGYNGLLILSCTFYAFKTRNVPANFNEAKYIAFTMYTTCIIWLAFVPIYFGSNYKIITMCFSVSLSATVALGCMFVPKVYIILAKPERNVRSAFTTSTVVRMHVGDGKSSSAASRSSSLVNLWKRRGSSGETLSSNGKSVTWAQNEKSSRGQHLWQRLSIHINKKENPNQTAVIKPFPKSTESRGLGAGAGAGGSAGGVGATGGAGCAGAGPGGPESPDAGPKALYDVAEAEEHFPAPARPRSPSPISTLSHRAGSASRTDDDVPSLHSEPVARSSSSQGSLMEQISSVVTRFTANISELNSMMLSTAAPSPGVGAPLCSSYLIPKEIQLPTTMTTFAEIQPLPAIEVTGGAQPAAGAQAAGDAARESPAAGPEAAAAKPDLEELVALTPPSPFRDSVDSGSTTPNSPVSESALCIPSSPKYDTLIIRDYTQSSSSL

Row | pKi | SMILES
1 | 7.44 | Cc1nc(C(=O)Nc2csc(C)n2)cc(-c2cc(F)cc(F)c2)n1 [Example 34, 6-(3,5-Difluoro-phenyl)-2-methyl-pyrimidine-4-carboxylic acid (2-methyl-thiazol-4-yl)-amide]
2 | 7.85 | Cc1csc(NC(=O)c2cc(-c3cc(F)cc(F)c3)nc(C)n2)n1 [Example 33, 6-(3,5-Difluoro-phenyl)-2-methyl-pyrimidine-4-carboxylic acid (4-methyl-thiazol-2-yl)-amide]
3 | 6.15 | Cc1cc(-c2ccc(F)cc2)c(C)c(C(=O)Nc2ccn(C)n2)n1 [Example 118, 4-(4-Fluoro-phenyl)-3,6-dimethyl-pyridine-2-carboxylic acid (1-methyl-1H-pyrazol-3-yl)-amide]
4 | 6.60 | Cc1cc(-c2ccc(F)cc2)cc(C(=O)Nc2ccn(C)n2)n1 [Example 29, 4-(4-Fluoro-phenyl)-6-methyl-pyridine-2-carboxylic acid (1-methyl-1H-pyrazol-3-yl)-amide]
5 | 6.95 | Cc1cc(-c2cncc(F)c2)cc(C(=O)Nc2cccc(Cl)c2)n1 [Example 177, 5-Fluoro-6′-methyl-[3,4′]bipyridinyl-2′-carboxylic acid (3-chloro-phenyl)-amide]
6 | 7.85 | Cc1cc(-c2cc(F)cc(F)c2)cc(C(=O)Nc2nc(C)c(F)s2)n1 [Example 199, 4-(3,5-Difluoro-phenyl)-6-methyl-pyridine-2-carboxylic acid (5-fluoro-4-methyl-thiazol-2-yl)-amide]
7 | 7.23 | Cc1cc(-c2ccnc(Cl)c2)cc(C(=O)Nc2ccn(C)n2)n1 [Example 153, 2′-Chloro-6-methyl-[4,4′]bipyridinyl-2-carboxylic acid (1-methyl-1H-pyrazol-3-yl)-amide]
8 | 7.70 | Cc1cccc(NC(=O)c2cc(-c3cccnc3)cc(C)n2)n1 [Example 87, 6′-Methyl-[3,4′]bipyridinyl-2′-carboxylic acid (6-methyl-pyridin-2-yl)-amide]
9 | 6.67 | COc1cncc(-c2cc(C)nc(C(=O)Nc3ccn(C)n3)c2)c1 [Example 50, 5-Methoxy-6′-methyl-[3,4′]bipyridinyl-2′-carboxylic acid (1-methyl-1H-pyrazol-3-yl)-amide]
10 | 8.10 | Cc1cc(-c2cc(F)cc(F)c2)cc(C(=O)Nc2ccnc(C)n2)n1 [Example 64, 4-(3,5-Difluorophenyl)-6-methyl-pyridine-2-carboxylic acid (2-methyl-pyrimidin-4-yl)-amide]
11 | 6.03 | Cc1cc(-c2cc(F)cc(F)c2)cc(C(=O)Nc2ncc(C)s2)n1 [Example 86, 4-(3,5-Difluorophenyl)-6-methyl-pyridine-2-carboxylic acid (5-methyl-thiazol-2-yl)-amide]
12 | 6.66 | Cc1cc(-c2cc(F)cc(F)c2)nc(C(=O)Nc2ccnc(Cl)c2)n1 [Example 194, 4-(3,5-Difluoro-phenyl)-6-methyl-pyrimidine-2-carboxylic acid (2-chloro-pyridin-4-yl)-amide]
13 | 6.39 | Cc1cc(-c2cccnc2)cc(C(=O)Nc2cccc(C#N)c2)n1 [Example 95, 6′-Methyl-[3,4′]bipyridinyl-2′-carboxylic acid (3-cyanophenyl)-amide]
14 | 6.74 | Cc1cc(NC(=O)c2cc(-c3ccnc(C#N)c3)cc(C)n2)ccn1 [Example 142, 2′-Cyano-6-methyl-[4,4′]bipyridinyl-2-carboxylic acid (2-methyl-pyridin-4-yl)-amide]
15 | 6.44 | Cc1cc(-c2cncc(F)c2)cc(C(=O)Nc2ccccc2)n1 [Example 180, 5-Fluoro-6′-methyl-[3,4′]bipyridinyl-2′-carboxylic acid phenylamide]
16 | 7.70 | Cc1cc(-c2cc(F)cc(F)c2)cc(C(=O)Nc2nc(CC#N)cs2)n1 [Example 163, 4-(3,5-Difluorophenyl)-6-methyl-pyridine-2-carboxylic acid (4-cyanomethyl-thiazol-2-yl)-amide]
17 | 6.71 | Cc1cc(-c2cncc(C(F)(F)F)c2)cc(C(=O)Nc2nc(C)cs2)n1 [Example 131, 6′-Methyl-5-trifluoromethyl-[3,4′]bipyridinyl-2′-carboxylic acid (4-methyl-thiazol-2-yl)-amide]
18 | 7.41 | Cc1cc(-c2cncc(F)c2)cc(C(=O)Nc2nc(C(F)F)cs2)n1 [Example 174, 5-Fluoro-6′-methyl-[3,4′]bipyridinyl-2′-carboxylic acid (4-difluoromethyl-thiazol-2-yl)-amide]
19 | 8.40 | Cc1cc(-c2cc(Cl)cc(Cl)c2)cc(C(=O)Nc2ccn(C)n2)n1 [Example 23, 4-(3,5-Dichloro-phenyl)-6-methyl-pyridine-2-carboxylic acid (1-methyl-1H-pyrazol-3-yl)-amide]
20 | 7.29 | Cc1nc(C(=O)Nc2ccn(C)n2)cc(-c2cc(F)cc(F)c2)n1 [Example 35, 6-(3,5-Difluoro-phenyl)-2-methyl-pyrimidine-4-carboxylic acid (1-methyl-1H-pyrazol-3-yl)-amide]

Same assay, conditions: competition with [3H]MPEP (2 nM), 1 h at 4° C., EBNA cell membranes, head prints no unit

Row | pKi | SMILES
21 | 5.92 | COc1ccc(-c2cc(C)nc(C(=O)Nc3nc(C)cs3)c2)cc1 [Example 9, 4-(4-Methoxy-phenyl)-6-methyl-pyridine-2-carboxylic acid (4-methyl-thiazol-2-yl)-amide]
22 | 7.96 | Cc1cc(-c2cccc(C#N)c2)cc(C(=O)Nc2nc(C)cs2)n1 [Example 3, 4-(3-Cyano-phenyl)-6-methyl-pyridine-2-carboxylic acid (4-methyl-thiazol-2-yl)-amide]
23 | 6.60 | Cc1cc(-c2ccc(C#N)cc2)cc(C(=O)Nc2nc(C)cs2)n1 [Example 12, 4-(4-Cyano-phenyl)-6-methyl-pyridine-2-carboxylic acid (4-methyl-thiazol-2-yl)-amide]
24 | 7.54 | Cc1cc(-c2cc(F)ccc2F)cc(C(=O)Nc2nc(C)cs2)n1 [Example 5, 4-(2,5-Difluoro-phenyl)-6-methyl-pyridine-2-carboxylic acid (4-methyl-thiazol-2-yl)-amide]
25 | 7.77 | Cc1cc(-c2cccnc2)cc(C(=O)Nc2nc(C)cs2)n1 [Example 16, 6′-Methyl-[3,4′]bipyridinyl-2′-carboxylic acid (4-methyl-thiazol-2-yl)-amide]
26 | 7.64 | Cc1cc(-c2ccc(F)c(F)c2)cc(C(=O)Nc2nc(C)cs2)n1 [Example 10, 4-(3,4-Difluoro-phenyl)-6-methyl-pyridine-2-carboxylic acid (4-methyl-thiazol-2-yl)-amide]
27 | 8.52 | Cc1cc(-c2cccc(F)c2)cc(C(=O)Nc2nc(C)cs2)n1 [Example 1, 4-(3-Fluoro-phenyl)-6-methyl-pyridine-2-carboxylic acid (4-methyl-thiazol-2-yl)-amide]
28 | 8.70 | Cc1cc(-c2cc(Cl)cc(Cl)c2)cc(C(=O)Nc2nc(C)cs2)n1 [Example 17, 4-(3,5-Dichloro-phenyl)-6-methyl-pyridine-2-carboxylic acid (4-methyl-thiazol-2-yl)-amide]
29 | 8.22 | Cc1cc(-c2cc(Cl)cc(Cl)c2)cc(C(=O)Nc2csc(C)n2)n1 [Example 20, 4-(3,5-Dichloro-phenyl)-6-methyl-pyridine-2-carboxylic acid (2-methyl-thiazol-4-yl)-amide]
30 | 6.91 | Cc1cc(-c2cncnc2)cc(C(=O)Nc2nc(C)cs2)n1 [Example 18, 6-Methyl-4-pyrimidin-5-yl-pyridine-2-carboxylic acid (4-methyl-thiazol-2-yl)-amide]
31 | 6.40 | Cc1cc(-c2cccc(S(C)(=O)=O)c2)cc(C(=O)Nc2nc(C)cs2)n1 [Example 8, 4-(3-Methanesulfonyl-phenyl)-6-methyl-pyridine-2-carboxylic acid (4-methyl-thiazol-2-yl)-amide]
32 | 8.15 | Cc1cc(-c2cc(F)cc(F)c2)cc(C(=O)Nc2nc(C)cs2)n1 [Example 2, 4-(3,5-Difluoro-phenyl)-6-methyl-pyridine-2-carboxylic acid (4-methyl-thiazol-2-yl)-amide]
33 | 7.60 | COc1ccccc1-c1cc(C)nc(C(=O)Nc2nc(C)cs2)c1 [Example 13, 4-(2-Methoxy-phenyl)-6-methyl-pyridine-2-carboxylic acid (4-methyl-thiazol-2-yl)-amide]
34 | 7.60 | Cc1cc(-c2cncc(F)c2)cc(C(=O)Nc2nc(C)cs2)n1 [Example 19, 5-Fluoro-6′-methyl-[3,4′]bipyridinyl-2′-carboxylic acid (4-methyl-thiazol-2-yl)-amide]
35 | 7.85 | Cc1cc(-c2cccc(OC(F)(F)F)c2)cc(C(=O)Nc2nc(C)cs2)n1 [Example 7, 6-Methyl-4-(3-trifluoromethoxy-phenyl)-pyridine-2-carboxylic acid (4-methyl-thiazol-2-yl)-amide]
